The record followed here is patent US20030180295A1, “Angiocidin: a Cys-Ser-Val-Thr-Cys-Gly specific tumor cell adhesion receptor” (Philadelphia Health and Education Corporation, priority 1999, published 2003).

The test system of series [1] is MDA-MB231 human breast carcinoma cells (MB231). The series can be described thus: ALAMAR BLUE cell viability assay. The format is cell-based. To be noted: 37 μg/ml, 24 hours. As for the experimental part:
(§1) Bovine aortic endothelial cells (BAEC), human umbilical vein endothelial cells (HUVEC), fibroblast cells, A549 human lung carcinoma cells (A549), MDA-MB231 human breast carcinoma cells (MB231), MCF7 human breast carcinoma cells (MCF7) were treated with 37 μg/ml of receptor, or buffer alone, for 24 hours. Viability of the cells was measured using the ALAMAR BLUE™ assay, which measures the capacity of cells to metabolize the ALAMAR BLUE™ dye. The ALAMAR BLUE™ assay (available from Biosource International, Camarillo, Calif.) quantitatively measures the proliferation of cell lines and can establish the relative cytotoxicity of chemical agents. The assay incorporates a fluorometric/colorimetric growth indicator based on detection of metabolic activity. The system incorporates an oxidation-reduction (redox) indicator that both fluoresces and changes color in response to chemical reduction of growth medium resulting from cell growth. This causes the redox indicator to change from its oxidized, non-fluorescent, blue form to its reduced, fluorescent, red form. Data can be collected using either fluorescence-based instrumentation (530-560 nm excitation wavelength and 590 nm emission wavelength) or absorbance-based instrumentation (570 nm and 600 nm).
In general terms: Resazurin is reduced to fluorescent resorufin, in cell work by metabolically active cells.

Series [2] deals with fibroblast cells. As to the kind of experiment: ALAMAR BLUE cell viability assay. It counts as cell-based. To be noted: 37 μg/ml, 24 hours. As for the experimental part:
as §1

The subject of series [3] is A549 human lung carcinoma cells (A549). As to the kind of experiment: ALAMAR BLUE cell viability assay. The format is cell-based. The note with it: 37 μg/ml, 24 hours. The protocol: as §1
Series [4] has as its target TSP-1 (Homo sapiens, UniProt P07996). As to the kind of experiment: Optical binding of angiocidin fragments to TSP-1 derivatized cuvette. The note with it: test proteins at 10 nm in PBS buffer. The protocol: This study examines the amino terminal (Met1-Lys132) and carboxy terminal (IIe248-Lys380) portions of angiocidin (SEQ ID NOS: 24 and 25, respectively). The binding of undenatured recombinant angiocidin fragments was compared to full length angiocidin. GST was used as a negative control. Binding was evaluated using an optical binding method that uses a cuvette to which TSP-1 is covalently coupled. A laser beam was used to detect whether the test protein (fragments, angiocidin, or GST) is bound to the TSP-1 derivatized cuvette surface. The cuvette was derivatized with 1 μg of TSP-1. The cuvette surfaces were blocked with a 1% BSA solution to prevent nonspecific binding. The test proteins were added at a concentration of […] in a PBS buffer.

In series [5] the test system is Human Aortic Endothelial Cells (HAEC). As to the kind of experiment: ALAMAR BLUE cell viability assay. The note with it: Example 26. The format is cell-based.
Series [6] deals with human umbilical vein endothelial cells (HUVEC). The series can be described thus: ALAMAR BLUE cell viability assay. The format is cell-based. To be noted: 24 hours. As for the experimental part: as §1
Similarly, the effect of receptor on viability of BAEC cells was compared to mouse Lewis lung carcinoma cells, using the same method.
The effect of angiocidin on HUVEC cell viability was evaluated, and FGF and TSP-1 were added to determine whether they ameliorated the angiocidin effect on cell viability. FGF (Fibroblast Growth Factor) is an endothelial cell mitogen, which promotes cell growth. […] TSP-1 was expected to reverse the inhibition of angiocidin; however, quantities added may have been insufficient to provide the correct molar ratio.

Sequence of TSP-1 (P07996 19-1170): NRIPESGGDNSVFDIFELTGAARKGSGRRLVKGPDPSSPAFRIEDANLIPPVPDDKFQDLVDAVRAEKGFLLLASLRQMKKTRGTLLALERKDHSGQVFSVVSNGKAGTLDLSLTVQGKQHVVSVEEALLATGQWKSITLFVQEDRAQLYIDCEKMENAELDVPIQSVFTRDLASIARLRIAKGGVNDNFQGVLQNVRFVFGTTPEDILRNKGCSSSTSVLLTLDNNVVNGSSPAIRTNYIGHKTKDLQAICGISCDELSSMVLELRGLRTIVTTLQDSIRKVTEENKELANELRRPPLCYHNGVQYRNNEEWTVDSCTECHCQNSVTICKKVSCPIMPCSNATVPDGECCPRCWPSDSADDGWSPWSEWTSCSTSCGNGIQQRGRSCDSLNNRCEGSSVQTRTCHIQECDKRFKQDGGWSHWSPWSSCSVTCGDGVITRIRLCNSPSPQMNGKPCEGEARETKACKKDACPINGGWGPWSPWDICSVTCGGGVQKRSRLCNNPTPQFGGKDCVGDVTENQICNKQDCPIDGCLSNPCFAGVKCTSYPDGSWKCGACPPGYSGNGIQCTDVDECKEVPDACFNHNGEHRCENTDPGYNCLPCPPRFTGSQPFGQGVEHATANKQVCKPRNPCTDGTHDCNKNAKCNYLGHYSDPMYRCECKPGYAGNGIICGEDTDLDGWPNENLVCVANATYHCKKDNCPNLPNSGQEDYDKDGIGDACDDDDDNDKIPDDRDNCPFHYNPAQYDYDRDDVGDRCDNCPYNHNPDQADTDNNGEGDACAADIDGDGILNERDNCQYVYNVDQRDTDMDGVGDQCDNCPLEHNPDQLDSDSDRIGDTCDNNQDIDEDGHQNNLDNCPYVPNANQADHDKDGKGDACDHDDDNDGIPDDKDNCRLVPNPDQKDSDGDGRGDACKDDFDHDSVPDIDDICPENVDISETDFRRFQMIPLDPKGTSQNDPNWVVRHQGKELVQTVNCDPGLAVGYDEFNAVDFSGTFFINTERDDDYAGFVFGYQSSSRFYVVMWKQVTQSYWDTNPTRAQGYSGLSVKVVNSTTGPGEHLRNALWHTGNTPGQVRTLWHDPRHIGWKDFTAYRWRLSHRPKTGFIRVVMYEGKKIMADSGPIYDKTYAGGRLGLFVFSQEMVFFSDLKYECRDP

On to “angiocidin: Cys-Ser-Val-Thr-Cys-Gly (SEQ ID NO: 1)-specific thrombospondin (TSP-1) receptor protein; recombinant form of SEQ ID NO: 2 used in the Examples”, for which the cell viability result was “No significant difference” in series [1]; “No significant difference” in series [2]; “No significant difference” in series [3]; “negative effect on the viability of both cell lines” in series [5]; “decreasing their viability” in series [6] (0 to 37 μg/ml). Besides, in series [4], the “binding to TSP-1 derivatized cuvette” value was “show very similar binding at the nano molar range”. Besides, in series [6] (37 μg/ml), the “decrease of cell viability” value is recorded as 70-80%.
